Assay [1] deals with peptide-forming enzyme (Mono S fraction enzyme). Briefly: Enzyme substrate specificity (1)-(10), (13), (14): peptide production. The arrangement: key: +: those for which production was confirmed but which were unable to be quantified due to the absence of a standard; a trace amount. The format is biochemical, Empedobacter brevis. The settings on record: 0.1 unit enzyme, 25° C. Here is the method:
(§1) Ester specificity was examined in the case of using L-amino acid ester for the carboxy component. 2 μl of the same enzyme fraction as used in Example 5 was added to 100 μl of 100 mM borate buffer (pH 9.0) containing the carboxy components indicated in Table 4 at 100 mM, 200 mM L-glutamine and 10 mM EDTA, and allowed to react at 25° C. for 2 hours. HCl represents hydrochloride in Table 4.
(§2) Peptide production was examined in the case of using L-alanine methyl ester for the carboxy component and using various L-amino acids for the amine component.
(§3) Peptide production was examined in the case of using various types of L-amino acid methyl esters for the carboxy component and using L-glutamine for the amine component. 2 μl of the same enzyme fraction as used in Example 5 was added to 100 μl of 100 mM borate buffer (pH 9.0) containing the L-amino acid methyl ester hydrochloride salts (AA-OMe.HCl) shown in Table 6 at 100 mM, 150 mM L-glutamine and 10 mM EDTA, and allowed to react at 25° C. for 3 hours. […] Furthermore, Tween-80 was added to the reaction system to a final concentration of 0.1% in the case of using L-Trp-OMe and L-Tyr-OMe.
(§4) Peptide production was examined in the case of using various L-amino acid methyl esters for the carboxy component and various L-amino acids for the amine component. 2 μl of the same enzyme fraction as used in Example 5 was added to 100 μl of 100 mM borate buffer (pH 9.0) containing the L-amino acid methyl ester hydrochloride salts (AA-OMe.HCl) shown in Table 7 at 100 mM, the L-amino acids shown in Table 7 at 150 mM and 10 mM EDTA, and allowed to react at 25° C. for 3 hours. The “tr” indicates a trace amount. Furthermore, Tween-80 was added to the reaction system to a final concentration of 0.1% in the case of using L-Trp-OMe.
Peptide production was examined in the case of using the L or D forms of various amino acid methyl esters for the carboxy component, and the L or D forms of various amino acids for the amine component. […]

Assay [2] has the same test system. The assay is described as above. It counts as biochemical, Empedobacter brevis. Also noted: key: +: those peptides for which production was confirmed but which were unable to be quantified due to the absence of a standard; a trace amount. The settings on record: carboxy component 25 mM, amine component 50 mM, 0.1 unit enzyme, 25° C., reaction time 3 hr. Here is the method: as §1, §2, §3, §4
Peptide production was examined in the case of using the L or D forms of various amino acid methyl esters for the carboxy component, and the L or D forms of various amino acids for the amine component. 2 μl of the same enzyme fraction as used in Example 5 was added to 100 μl of 100 mM borate buffer (pH 9.0) containing the various amino acid methyl ester hydrochloride salts (AA-OMe HCl) shown in Table 8 at 100 mM, the various amino acids shown in Table 8 at 150 mM and 10 mM EDTA, and allowed to react at 25° C. for 3 hours. The “tr” indicates a trace amount.
Peptide production was examined using various L-amino acid amides for the carboxy component, and various L-amino acids for the amine component. 2 μl of the same enzyme fraction as that used in Example 5 was added to 100 μl of 100 mM borate buffer (pH 9.0) containing the L-amino acid amide hydrochloride salt (M-NH2.HCl) shown in Table 9 at 100 mM, the L-amino acids shown in Table 9 at 150 mM and 10 mM EDTA, and allowed to react at 25° C. for 3 hours.
Peptide production was examined in the case of using various L-alanine methyl esters for the carboxy component and C-protected L-amino acids for the amine component. 2 μl of the same enzyme fraction as used in Example 5 was added to 100 μl of 100 mM borate buffer (pH 9.0) containing the L-alanine methyl ester hydrochloride hydrochloride salt (Ala-OMe.HCl) shown in Table 10 at 100 mM, the L-amino acid amide hydrochloride salts shown in Table 10 at 150 mM and 10 mM EDTA, and allowed to react at 25° C. for 3 hours.
Peptide production was examined in the case of using various amino acid methyl esters for the carboxy component and methylamine for the amine component. 2 μl of the same enzyme fraction as used in Example 5 was added to 100 μl of 100 mM borate buffer (pH 9.0) containing the amino acid methyl ester hydrochloride salt (M-OMe.HCl) shown in Table 11 at 100 mM, the methylamine shown in Table 11 at 150 mM and 10 mM EDTA, and allowed to react at 25° C. for 3 hours.
Peptide production was examined in the case of using […] for the carboxy component or β-amino acid for the amine component.

Structures are written as SMILES. Where a SMILES comes first, the peptide text is derived from it. [ ]: non-standard residue; d: D form. The star is where a group is joined. 2Nal = N[C@@H](Cc1ccc2ccccc2c1)C(=O)O; Cha = N[C@@H](CC1CCCCC1)C(=O)O; Boc = CC(C)(C)OC(=O)*

As to `C[C@H](N)C(=O)N[C@@H](Cc1ccc2ccccc2c1)C(=O)O` [H-Ala-2-Nal-OH] (H-Ala-[2Nal]-OH), the Produced peptide result in assay [1] (carboxy component 20 mM, amine component 20 mM, reaction time 3 hr) was “+”.

Consider `CC(C)(C)OC(=O)NCCCC[C@H](N)C(=O)N[C@@H](CCC(N)=O)C(=O)O` [H-Lys(Boc)-Gln-OH] (H-Lys(Boc)-Gln-OH), for which, in assay [1] (carboxy component 100 mM, amine component 150 mM, reaction time 2 hr), the Produced peptide entry is “+”.

On to `N[C@@H](CC1CCCCC1)C(=O)N[C@@H](Cc1ccccc1)C(=O)O` [H-CHA-Phe-OH] (H-[Cha]-Phe-OH), for which the Produced peptide result in assay [1] (carboxy component 40 mM, amine component 40 mM, reaction time 3 hr) is “+”.

With `NC(=O)CC[C@H](NC(=O)[C@@H](N)Cc1ccc(Cl)cc1)C(=O)O` [H-Cl-F-Phe-H-Gln-OH], the Produced peptide entry in assay [2] is listed as “tr”.

(Values after US20040204577A1, “Novel peptide-forming enzyme gene” (Ajinomoto Co., Inc., priority 2003, published 2004).)
